Results on five compounds are retold here after paper PMC11823679, “Protamine protects against vancomycin-induced kidney injury” (Antimicrobial Agents and Chemotherapy, 2025).

Data set [1] has as its system acute kidney injury. The following applies: cited from earlier work. The source says:
Vancomycin is one of the most widely used antibiotics within United States in-patient healthcare systems, accounting for 11.9% of all antibiotic use for inpatient antimicrobials (1,258 out of 10,612) in a 2015 hospital survey ([1]). As a tricyclic glycopeptide, it is primarily indicated for severe Gram-positive bacterial infections, including methicillin-resistant Staphylococcus aureus (MRSA) ([2]). For about 70 years now, vancomycin has remained a first-line antibiotic widely used and studied across people of all ages. Despite its efficacy in the treatment of MRSA infections, one common limit ... || In humans, VAN (creatinine defined) ([41]) occurs between an interquartile range of 6–13 days ([42]), and creatinine is known to lag behind GFR ([43]). Serum creatinine is the most commonly utilized biomarker to classify AKI in patients ([41], [44][–][46]); however, creatinine is non-sensitive, non-specific, and slowly reactive to kidney function as compared to GFR ([47]). GFR can drop 50% before changes in SCr are detected ([48][–][50]). As such, acute injuries from vancomycin take a median of 6 days to be detectable with creatinine alone ([51]). Therefore, this study focused on the pre-clini ... || Originally derived from salmon fish sperm (salmine), protamine is a highly positively charged protein consisting of 32 amino acids. Currently, it is widely used as an effective agent to neutralize heparin using electrostatic bonds made between the cationic arginine groups of protamine and the anionic heparin in a 1:1 ratio ([6]). Specifically, protamine shares binding sites with heparin (current target for FDA-approved use) and megalin ([30], [31]). On this note, a clinical limitation for the use of protamine arises for patients who require heparin infusions, such as post-diabetic foot infecti ...

Data set [2] has as its system megalin. Also on record: method as in Hori et al. ([18]). The note with it: quartz crystal microbalance analysis, ref Hori et al. ([18]), cited from earlier work. An excerpt:
Hori et al. ([18]) performed a study to evaluate the binding of megalin to vancomycin and cisplatin, as well as aminoglycosides and colistin. They utilized quartz crystal microbalance analysis to assess the dir ...

Data set [3] has as its system Urinary KIM-1. Kind of data set: Urinary KIM-1 kidney injury in rats given vancomycin and/or protamine. The note with it: for Contrast KIM-1: urinary KIM-1, vancomycin 150 mg/kg i.v., protamine sulfate 1.5 mg/kg i.v. Here is the method: Male Sprague-Dawley rats (n = 19; age 8–10 weeks; 268–304 g; Envigo, Indianapolis, IN, USA) underwent double jugular catheterization ([33]) (Fig. 3A). Surgery was performed under ketamine (100 mg/kg of body weight) and xyalzine (10 mg/kg of body weight) anesthesia with buprenorphine (0.02 mg/kg of body weight) given post-operatively for pain management. Animals were allowed to recover 4 days before the administration of any drug. Animals were housed in metabolic cages starting 1 day prior to day 0 with access to food and water ad libitum for the duration of the study (Fig. 3B).
Animals were divided into three experimental treatment protocols. Using a dedicated jugular vein for dosing, the animals received clinical grade intravenous protamine and/or vancomycin in doses allometrically scaled to humans according to the following protocols: (i) protamine sulfate (1.5 mg/kg of body weight) and vancomycin (150 mg/kg of body weight) (n = 6); (ii) protamine only (1.5 mg/kg of body weight) with saline sham (sham for volume of vancomycin) (n = 7); or (iii) vancomycin only (150 mg/kg of body weight) with saline sham (sham for volume of protamine) (n = 6) ([34][–][36]). Saline sham was given to match the volumes of protamine and vancomycin doses to maintain euvolemia. On day 0, all animals received only iohexol (51.8 mg/day) intravenously to establish baseline GFR measurements. Drugs were administered as described above by treatment protocols to all groups on days 1–4. Infusion times for each of the drugs include (i) protamine sulfate, 5 minutes; (ii) vancomycin and iohexol, 2 minutes; and (iii) saline sham, 5 or 2 minutes depending on what the sham was replacing.
Urine samples were collected daily, and volumes were measured starting from day 0 to day 4. Samples were centrifuged at 500 g for 10 minutes, and the resulting supernatant was aliquoted (1.5 mL) and stored at −80°C for renal biomarker analysis later.
Urinary samples were analyzed for KIM-1 using the Milliplex MAP Rat Kidney Toxicity Magnetic Bead Panel 1 (EMD Millipore Corporation, Charles, MO, USA) according to the manufacturer’s directions and as previously described ([34], [36], [37]). Briefly, neat urine aliquots were mixed with monoclonal antibody-coated magnetic microbeads (Bead Panel 1) and run on a 96-well plate, which also included a standard curve. Biomarker data were acquired, and concentrations were analyzed using Belysa Immunoassay Curve-Fitting Software V1 (MilliporeSigma, Darmstadt, Germany). The amount of urinary KIM-1 excreted over the 24-h collection period was obtained by multiplying the urinary concentration by 24-h urinary volume.
An omnibus test, i.e., joint tests (multi-degree of freedom) of the interaction and main effects, which is similar to the F test in ANOVA, was used initially (STATA 17.0 BE, StataCorp LLC, College Station, TX, USA). Only models with significant interaction at P < 0.05 were selected for post hoc analysis (i.e., identification of the difference between treatment groups and days). Margins were calculated for a full factorial of the variables, i.e., main effects for each variable and interactions. Referent groups were pre-treatment baseline values and protamine alone as a treatment, except where noted. […] LOWESS graphs were produced in R version 4.2.2 using ggplot2. […] All tests were two-tailed; a P < 0.05 was required for statistical significance. Graphs for cellular studies were generated using GraphPad version 9.3.1 and were fit with a log(inhibitor) vs normalized response function after log transformation.

The mark [4] stands for this setting: within group, day 2 vs 1 (baseline).
[5] abbreviates: within group, day 3 vs 1 (baseline).
Setting [6] is: within group, day 4 vs 1 (baseline).

In the case of `CN[C@H](CC(C)C)C(=O)N[C@H]1C(=O)N[C@@H](CC(N)=O)C(=O)N[C@H]2C(=O)N[C@H]3C(=O)N[C@H](C(=O)N[C@H](C(=O)O)c4cc(O)cc(O)c4-c4cc3ccc4O)[C@H](O)c3ccc(c(Cl)c3)Oc3cc2cc(c3O[C@@H]2O[C@H](CO)[C@@H](O)[C@H](O)[C@H]2O[C@H]2C[C@](C)(N)[C@H](O)[C@H](C)O2)Oc2ccc(cc2Cl)[C@H]1O` [Vancomycin], the “Time to VAN (creatinine defined), interquartile range” value in data set [1] (humans, after treatment initiation) is 6 to 13 days. The “Median time for acute injury to be detectable with creatinine alone” value in data set [1] (humans) is recorded as 6 days. Further, the “Risk of AKI compared to other antibiotics” value in data set [1] (systematic review and meta-analysis) is “up to 2.5 times greater”. Also, the “Direct binding to megalin (in words)” value in data set [2] is given as “megalin is bound specifically”. In addition, in data set [3] (day 2, 24 h after drug administration), the “KIM-1 compared to protamine alone (in words)” value is recorded as “significantly increased urinary KIM-1”. Further, in data set [3] (each animal group compared to itself, 4 days), the “KIM-1 change from baseline of day 1 (in words)” value was “elevated KIM-1 on days 2 and 3”. Also, the “Contrast KIM-1” value in data set [3] (vs protamine alone, day 1 (prior to any drug), n = 6-7) stood at 0.72 ng/24 h; in data set [3] (vs protamine alone, day 2 (24 h after drug administration)), 24.92 ng/24 h; in data set [3] (vs protamine alone, day 2 (24 h after drug administration), listed as vancomycin) it was 24.9 ng/24 h; in data set [3] (vs protamine alone, day 3), 20.88 ng/24 h; in data set [3] (vs protamine alone, day 4), 9.00 ng/24 h; in data set [3] (setting [4]), 24.81 ng/24 h. The “Contrast KIM-1” value amounted to 20.50 ng/24 h in data set [3] (setting [5]) and 8.55 ng/24 h in data set [3] (setting [6]). The “95% confidence interval of contrast KIM-1” value was “(−22.3–23.8) ng/24 h” in data set [3] (vs protamine alone, day 1); “(1.9–48.0) ng/24 h” in data set [3] (vs protamine alone, day 2); 1.87–48.0 ng/24 h in data set [3] (vs protamine alone, day 2, listed as vancomycin); “(−2.2–43.9) ng/24 h” in data set [3] (vs protamine alone, day 3); “(−14.0–32.0) ng/24 h” in data set [3] (vs protamine alone, day 4); “(5.2–44.4) ng/24 h” in data set [3] (setting [4]). Besides, the “95% confidence interval of contrast KIM-1” value in data set [3] (setting [5]) is on record as “(0.9–40.1) ng/24 h”; in data set [3] (setting [6]), “(−11–28.1) ng/24 h”.

As to `CC1(C)C[C@@H]1C(=O)N/C(=C\CCCCSC[C@H](N)C(=O)O)C(=O)O` [cilastatin], the “Competition of drug binding to megalin (in words)” value in data set [2] (binding of gentamicin, colistin, vancomycin and cisplatin) is listed as “the binding of all the drugs listed above is competed by cilastatin”.

`N.N.[Cl][Pt][Cl]` [cisplatin]: in data set [2], the “Direct binding to megalin (in words)” value is recorded as “megalin is bound specifically”.

Take `CNC(C)C1CCC(N)C(OC2C(N)CC(N)C(OC3OCC(C)(O)C(NC)C3O)C2O)O1` (centres unmarked) [gentamicin]: the “Direct binding to megalin (in words)” value in data set [2] was “megalin is bound specifically”.

Turning to colistin, the “Direct binding to megalin (in words)” value in data set [2] is recorded as “megalin is bound specifically”.
